Laboratory results published in PubChem BioAssay AID330 (DTP/NCI, 2004).
“And” between values parts separate entries of the source, which are not always exact repeats. Equal values may be shown once. Inconclusive results and toxic doses are left out.

Tested on: P388 leukemia ip, CD2F1 mice, survival T/C
Assay: NCI In Vivo Anticancer Drug Screen. Data for tumor model P388 Leukemia (intraperitoneal) in CD2F1 (CDF1) mice
Settings: endpoint: median survival time, higher = longer survival
Summary of the method: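 Mice carrying the transplanted tumor received test compound or vehicle. Survival was recorded in each group, and the value is the treated-group measurement divided by that of the vehicle-treated control group.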

[1] = dose: 50.0 mg/kg/injection, schedule: Q04DX003 (ip), vehicle: saline with Tween-80
[2] = dose: 100.0 mg/kg/injection, schedule: Q04DX003 (ip), vehicle: saline with Tween-80
[3] = dose: 200.0 mg/kg/injection, schedule: Q04DX003 (ip), vehicle: saline with Tween-80

With `C=CC1CC/C(=C/C)C(=O)O1` (stereo unspecified) the T/C [1] was 103 % of control, the T/C [2] was 100 % of control and the T/C [3] was 100 % of control.

`COC1=C(N)C(=O)c2nc(-c3nc(C(=O)O)c(C)c(-c4ccc(OC)c(OC)c4O)c3N)ccc2C1=O` was tested, and the T/C (dose: 0.01 mg/kg/injection, schedule: Q01DX009 (ip), vehicle: other) was 93 % of control, the T/C (dose: 0.01 mg/kg/injection, schedule: Q## X024 (ip), vehicle: other) was 110 % of control and the T/C (dose: 0.02 mg/kg/injection, schedule: Q01DX009 (ip), vehicle: DMSO) was 101 % of control. The T/C (dose: 0.02 mg/kg/injection, schedule: Q## X016 (ip), vehicle: other) was 110 % of control, the T/C (dose: 0.02 mg/kg/injection, schedule: Q## X024 (ip), vehicle: other) was 100 % of control and the T/C (dose: 0.03 mg/kg/injection, schedule: Q01DX009 (ip), vehicle: distilled water + Tween-80) was 117 % of control and 97 % of control. The T/C (dose: 0.03 mg/kg/injection, schedule: Q01DX009 (ip), vehicle: other) was 95 % of control, the T/C (dose: 0.04 mg/kg/injection, schedule: Q01DX009 (ip), vehicle: DMSO) was 123 % of control and the T/C (dose: 0.05 mg/kg/injection, schedule: Q01DX001 (ip), vehicle: other) was 120 % of control. For the same molecule, the T/C (dose: 0.05 mg/kg/injection, schedule: Q01DX009 (ip), vehicle: DMSO) was 119 % of control, the T/C (dose: 0.05 mg/kg/injection, schedule: Q## X008 (ip), vehicle: other) was 120 % of control and the T/C (dose: 0.05 mg/kg/injection, schedule: Q## X016 (ip), vehicle: other) was 110 % of control. For the same molecule, the T/C (dose: 0.05 mg/kg/injection, schedule: Q## X024 (ip), vehicle: other) was 110 % of control, the T/C (dose: 0.06 mg/kg/injection, schedule: Q01DX009 (ip), vehicle: DMSO) was 124 % of control and the T/C (dose: 0.08 mg/kg/injection, schedule: Q01DX009 (ip), vehicle: DMSO) was 110 % of control. For the same molecule, the T/C (dose: 0.1 mg/kg/injection, schedule: Q01DX001 (ip), vehicle: other) was 120 % of control, the T/C (dose: 0.1 mg/kg/injection, schedule: Q01DX009 (oral), vehicle: other) was 110 % of control and the T/C (dose: 0.1 mg/kg/injection, schedule: Q## X008 (ip), vehicle: other) was 120 % of control. The T/C (dose: 0.1 mg/kg/injection, schedule: Q## X016 (ip), vehicle: other) was 110 % of control, the T/C (dose: 0.12 mg/kg/injection, schedule: Q01DX009 (ip), vehicle: other) was 120 % of control and the T/C (dose: 0.15 mg/kg/injection, schedule: Q01DX009 (ip), vehicle: dioxane) was 123 % of control. For the same molecule, the T/C (dose: 0.16 mg/kg/injection, schedule: Q01DX009 (ip), vehicle: distilled water + Tween-80) was 123 % of control, the T/C (dose: 0.16 mg/kg/injection, schedule: Q01DX009 (ip), vehicle: other) was 102 % of control and 103 % of control and the T/C (dose: 0.2 mg/kg/injection, schedule: Q01DX001 (ip), vehicle: other) was 120 % of control. The T/C (dose: 0.2 mg/kg/injection, schedule: Q01DX009 (oral), vehicle: other) was 110 % of control, the T/C (dose: 0.2 mg/kg/injection, schedule: Q## X008 (ip), vehicle: other) was 120 % of control and the T/C (dose: 0.2 mg/kg/injection, schedule: Q## X016 (ip), vehicle: other) was 120 % of control. The T/C (dose: 0.32 mg/kg/injection, schedule: Q01DX009 (ip), vehicle: distilled water + Tween-80) was 101 % of control and 94 % of control, the T/C (dose: 0.4 mg/kg/injection, schedule: Q01DX009 (oral), vehicle: other) was 110 % of control and the T/C (dose: 0.8 mg/kg/injection, schedule: Q01DX001 (oral), vehicle: other) was 100 % of control. The T/C (dose: 0.8 mg/kg/injection, schedule: Q01DX009 (oral), vehicle: other) was 100 % of control, the T/C (dose: 1.6 mg/kg/injection, schedule: Q01DX001 (oral), vehicle: other) was 100 % of control and the T/C (dose: 2.5 mg/kg/injection, schedule: Q01DX009 (ip), vehicle: saline with Tween-80) was 95 % of control. The T/C (dose: 3.2 mg/kg/injection, schedule: Q01DX001 (oral), vehicle: other) was 90 % of control, the T/C (dose: 12.5 mg/kg/injection, schedule: Q01DX009 (ip), vehicle: distilled water + Tween-80) was 103 % of control and the T/C (dose: 25.0 mg/kg/injection, schedule: Q01DX009 (ip), vehicle: distilled water + Tween-80) was 110 % of control. For the same molecule, the T/C (dose: 50.0 mg/kg/injection, schedule: Q01DX009 (ip), vehicle: distilled water + Tween-80) was 119 % of control, the T/C (dose: 200.0 mg/kg/injection, schedule: Q01DX009 (ip), vehicle: distilled water + Tween-80) was 119 % of control and the T/C (dose: 25.0 micrograms/kg/injection, schedule: Q01DX009 (ip), vehicle: other) was 120 % of control. For the same molecule, the T/C (dose: 400.0 micrograms/kg/injection, schedule: Q01DX009 (ip), vehicle: other) was 114 % of control.

With `Cc1ccc(NC(=O)Oc2ccc(Br)cc2Br)c([N+](=O)[O-])c1` the T/C (dose: 50.0 mg/kg/injection, schedule: Q01DX009 (ip), vehicle: saline with Tween-80) was 115 % of control, the T/C [1] was 115 % of control and the T/C (dose: 100.0 mg/kg/injection, schedule: Q01DX009 (ip), vehicle: saline with Tween-80) was 115 % of control. For the same molecule, the T/C [2] was 96 % of control, the T/C [3] was 99 % of control and the T/C (dose: 400.0 mg/kg/injection, schedule: Q04DX003 (ip), vehicle: saline with Tween-80) was 115 % of control.

For `COCC1(C)CCCC2(C)C3=C(CCC(OC)C3)CCC12` (stereo unspecified), the T/C (dose: 100.0 mg/kg/injection, schedule: Q01DX001 (ip), vehicle: saline) was 99 % of control, the T/C (dose: 200.0 mg/kg/injection, schedule: Q01DX001 (ip), vehicle: saline) was 96 % of control and the T/C (dose: 400.0 mg/kg/injection, schedule: Q01DX001 (ip), vehicle: saline) was 93 % of control.

For `Cn1/c(=N\NC(=O)c2ccncc2)sc2ccccc21`, the T/C (dose: 6.25 mg/kg/injection, schedule: Q01DX009 (ip), vehicle: Klucel (hydroxypropylcellulose) (HPC)) was 110 % of control, the T/C (dose: 12.5 mg/kg/injection, schedule: Q01DX009 (ip), vehicle: Klucel (hydroxypropylcellulose) (HPC)) was 107 % of control and the T/C (dose: 25.0 mg/kg/injection, schedule: Q01DX009 (ip), vehicle: Klucel (hydroxypropylcellulose) (HPC)) was 115 % of control.

`COc1ccc(CC2C(=O)OC(C)C(NC(=O)C(CC(C)C)N(C)C(=O)C3CCCN3C(=O)C(C)O)C(=O)NC(C(C)C)C(O)CC(=O)OC(C(C)C)C(=O)C(C)C(=O)NC(CC(C)C)C(=O)N3CCCC3C(=O)N2C)cc1` (stereo unspecified) was tested, and the T/C (dose: 37.5 micrograms/kg/injection, schedule: Q01DX005 (ip), vehicle: distilled water + alcohol) was 122 % of control, the T/C (dose: 250.0 micrograms/kg/injection, schedule: Q01DX005 (ip), vehicle: distilled water + alcohol) was 160 % of control and the T/C (dose: 500.0 micrograms/kg/injection, schedule: Q01DX005 (ip), vehicle: distilled water + alcohol) was 166 % of control.

`N#CCCOCNC(=O)NCOCCC#N` was tested, and the T/C (dose: 60.0 mg/kg/injection, schedule: Q01DX005 (ip), vehicle: saline with Tween-80) was 96 % of control, the T/C (dose: 120.0 mg/kg/injection, schedule: Q01DX005 (ip), vehicle: saline with Tween-80) was 97 % of control and the T/C (dose: 240.0 mg/kg/injection, schedule: Q01DX005 (ip), vehicle: saline with Tween-80) was 90 % of control.

In the case of `CO/N=C/c1ccccc1C(=O)O`, the T/C (dose: 50.0 mg/kg/injection, schedule: Q01DX005 (ip), vehicle: Klucel (hydroxypropylcellulose) (HPC)) is reported as 100 % of control, the T/C (dose: 100.0 mg/kg/injection, schedule: Q01DX005 (ip), vehicle: Klucel (hydroxypropylcellulose) (HPC)) is reported as 95 % of control and the T/C (dose: 200.0 mg/kg/injection, schedule: Q01DX005 (ip), vehicle: Klucel (hydroxypropylcellulose) (HPC)) is reported as 99 % of control.

With `COc1ccc2cc3n(cc-2c1=O)CCc1cc2c(cc1-3)OCO2` the T/C (dose: 100.0 mg/kg/injection, schedule: Q04DX003 (ip), vehicle: water) was 160 % of control.

For `CC[C@@H]1C[C@H]2CN(CCc3c([nH]c4ccccc34)[C@@](C(=O)OC)(c3cc4c(cc3OC)N(C)[C@H]3[C@@](O)(C(=O)OC)[C@H](OC(C)=O)[C@]5(CC)CCCN6CC[C@]43[C@@H]65)C2)C1`, the T/C (dose: 0.06 mg/kg/injection, schedule: Q01DX009 (ip), vehicle: water) was 104 % of control, the T/C (dose: 0.13 mg/kg/injection, schedule: Q01DX009 (ip), vehicle: water) was 104 % of control and the T/C (dose: 0.25 mg/kg/injection, schedule: Q01DX009 (ip), vehicle: water) was 105 % of control and 110 % of control. The T/C (dose: 0.5 mg/kg/injection, schedule: Q01DX009 (ip), vehicle: water) was 108 % of control and 118 % of control, the T/C (dose: 2.0 mg/kg/injection, schedule: Q01DX009 (ip), vehicle: saline with Tween-80) was 150 % of control and the T/C (dose: 4.0 mg/kg/injection, schedule: Q01DX009 (ip), vehicle: saline with Tween-80) was 159 % of control.

With `COC(=O)c1c(OC)c(Cl)c2cc3c(c(O)c2c1C)C(=O)[C@@]1(O)C(=O)C=C(OC)[C@H](O)[C@@]1(O)C3=O` the T/C (dose: 11.0 mg/kg/injection, schedule: Q01DX005 (ip), vehicle: saline with Tween-80) was 103 % of control, the T/C (dose: 22.0 mg/kg/injection, schedule: Q01DX005 (ip), vehicle: saline with Tween-80) was 105 % of control and the T/C (dose: 44.0 mg/kg/injection, schedule: Q01DX005 (ip), vehicle: saline with Tween-80) was 89 % of control. The T/C (dose: 88.0 mg/kg/injection, schedule: Q01DX005 (ip), vehicle: saline with Tween-80) was 94 % of control and the T/C (dose: 176.0 mg/kg/injection, schedule: Q01DX005 (ip), vehicle: saline with Tween-80) was 99 % of control.
